Laboratory results as given in ChEMBL document CHEMBL3867458, “Chiral Separation of Cytotoxic Flavan Derivatives from Daphne giraldii” (J Nat Prod, 2016).

Legend:
[1] = Cytotoxicity activity against human A549 cells assessed as growth inhibition measured after 48 hrs by MTT assay; type: functional, cell-based; settings: A549, 48 h
[2] = Cytotoxicity activity against human MCF7 cells assessed as growth inhibition measured after 48 hrs by MTT assay; type: functional, cell-based; settings: MCF7, 48 h

## CC(=O)O[C@H]1C(=O)[C@@]2(C)[C@H]([C@H](OC(=O)c3ccccc3)[C@]3(O)C[C@H](OC(=O)[C@H](O)[C@@H](NC(=O)c4ccccc4)c4ccccc4)C(C)=C1C3(C)C)[C@]1(OC(C)=O)CO[C@@H]1C[C@@H]2O [PACLITAXEL]
[1]
  IC50: 30 nM
[2]
  IC50: 60 nM
